In PubChem BioAssay AID248 (DTP/NCI, 2004):
Where “and” joins values, the source holds several entries; their conditions need not be identical. Equal entries are not always repeated. Inconclusive results and toxic doses are left out. Rule as the data show it: active = T/C of 150% or more; inactive = T/C below 125%.

Test system: L1210 leukemia ip in BDF1 mice, survival T/C
Assay: NCI In Vivo Anticancer Drug Screen. Data for tumor model L1210 Leukemia (intraperitoneal) in B6D2F1 (BDF1) mice
Settings: endpoint: mean survival time, higher = longer survival
Procedure, shortened: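 Survival endpoint. Drug-treated group vs vehicle group, expressed as T divided by C. Tumor passaged by transplantation.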

[1] = dose: 100.0 mg/kg/injection, schedule: Q01DX001 (ip), vehicle: saline
[2] = dose: 200.0 mg/kg/injection, schedule: Q01DX001 (ip), vehicle: saline
[3] = dose: 100.0 mg/kg/injection, schedule: Q01DX001 (ip), vehicle: saline with Tween-80
[4] = dose: 25.0 mg/kg/injection, schedule: Q01DX009 (ip), vehicle: saline with Tween-80
[5] = dose: 100.0 mg/kg/injection, schedule: Q04DX003 (ip), vehicle: saline
[6] = dose: 50.0 mg/kg/injection, schedule: Q01DX009 (ip), vehicle: saline with Tween-80
[7] = dose: 100.0 mg/kg/injection, schedule: Q01DX009 (ip), vehicle: saline with Tween-80
[8] = dose: 200.0 mg/kg/injection, schedule: Q01DX009 (ip), vehicle: saline with Tween-80
[9] = dose: 200.0 mg/kg/injection, schedule: Q04DX003 (ip), vehicle: saline
[10] = dose: 400.0 mg/kg/injection, schedule: Q04DX003 (ip), vehicle: saline
[11] = dose: 100.0 mg/kg/injection, schedule: Q01DX009 (ip), vehicle: Klucel (hydroxypropylcellulose) (HPC)
[12] = dose: 200.0 mg/kg/injection, schedule: Q01DX009 (ip), vehicle: Klucel (hydroxypropylcellulose) (HPC)
[13] = dose: 400.0 mg/kg/injection, schedule: Q01DX009 (ip), vehicle: Klucel (hydroxypropylcellulose) (HPC)

Measured: T/C

O=C(Cl)C1C2C=CC(C2)C1C(=O)Cl (centres undefined)
inactive: dose: 50.0 mg/kg/injection, schedule: Q01DX001 (ip), vehicle: saline 108 % of control | [1] 97 % of control

C/C(CNc1nc(N)nc(N)c1N=Nc1ccc(Cl)cc1)=N\NC(N)=O
inactive: [1] 94 % of control | [2] 98 % of control | dose: 400.0 mg/kg/injection, schedule: Q01DX001 (ip), vehicle: saline 94 % of control

c1ccc(Nc2nnc(Nc3ccccc3)s2)cc1
inactive: dose: 100.0 mg/kg/injection, schedule: Q01DX001 (ip), vehicle: Klucel (hydroxypropylcellulose) (HPC) 92 % of control | dose: 200.0 mg/kg/injection, schedule: Q01DX001 (ip), vehicle: Klucel (hydroxypropylcellulose) (HPC) 103 % of control | dose: 400.0 mg/kg/injection, schedule: Q01DX001 (ip), vehicle: Klucel (hydroxypropylcellulose) (HPC) 106 % of control

CC(C)=CCC(CC=C(C)C)c1ccncc1 (tested in a mixture with another compound)
inactive: [1] 96 % of control | [2] 98 % of control

Oc1ccc(C2(CCl)OCCO2)cc1
inactive: dose: 25.0 mg/kg/injection, schedule: Q01DX001 (ip), vehicle: saline with Tween-80 98 % of control | dose: 50.0 mg/kg/injection, schedule: Q01DX001 (ip), vehicle: saline with Tween-80 104 % of control | [3] 107 % of control

O=C1C=CC(=O)N1C(c1ccccc1)c1ccccc1
inactive: dose: 12.5 mg/kg/injection, schedule: Q01DX009 (ip), vehicle: Klucel (hydroxypropylcellulose) (HPC) 102 % of control | dose: 25.0 mg/kg/injection, schedule: Q01DX009 (ip), vehicle: Klucel (hydroxypropylcellulose) (HPC) 102 % of control | dose: 50.0 mg/kg/injection, schedule: Q01DX009 (ip), vehicle: Klucel (hydroxypropylcellulose) (HPC) 102 % of control | dose: 50.0 mg/kg/injection, schedule: Q04DX002 (ip), vehicle: Klucel (hydroxypropylcellulose) (HPC) 94 % of control | dose: 100.0 mg/kg/injection, schedule: Q04DX002 (ip), vehicle: Klucel (hydroxypropylcellulose) (HPC) 88 % of control | dose: 200.0 mg/kg/injection, schedule: Q04DX002 (ip), vehicle: Klucel (hydroxypropylcellulose) (HPC) 101 % of control and 116 % of control and 91 % of control | dose: 400.0 mg/kg/injection, schedule: Q04DX002 (ip), vehicle: Klucel (hydroxypropylcellulose) (HPC) 91 % of control

Cc1cc(CN(C)C)cc(C(C)C)c1O
inactive: dose: 12.5 mg/kg/injection, schedule: Q01DX009 (ip), vehicle: saline with Tween-80 96 % of control | [4] 97 % of control

O=C(COc1ccc(Cl)c(Cl)c1)NCc1ccc[n+](Cc2ccc(S(=O)(=O)F)c(Cl)c2)c1
inactive: dose: 25.0 mg/kg/injection, schedule: Q04DX003 (ip), vehicle: saline 106 % of control | dose: 50.0 mg/kg/injection, schedule: Q04DX003 (ip), vehicle: saline 106 % of control | [5] 92 % of control and 98 % of control

C#CCSP(=O)(O)O
inactive: [4] 103 % of control | [6] 103 % of control

COc1ccc2c(c1)CC[C@@H]1[C@@H]2CC[C@]2(C)[C@@H](O)C(=O)C[C@@H]12
inactive: [7] 90 % of control | [5] 94 % of control | [8] 92 % of control | [9] 88 % of control | dose: 400.0 mg/kg/injection, schedule: Q01DX009 (ip), vehicle: saline with Tween-80 90 % of control | [10] 91 % of control

COc1cc(OC)c(/C=C/c2cc3c4ccccc4ccc3[n+](C)c2)c(OC)c1
inactive: dose: 6.25 mg/kg/injection, schedule: Q01DX001 (ip), vehicle: saline with Tween-80 104 % of control | dose: 12.5 mg/kg/injection, schedule: Q01DX001 (ip), vehicle: saline with Tween-80 107 % of control

CNC(=O)Nc1cc(OC)ccc1OC
inactive: [11] 106 % of control | [12] 98 % of control | [13] 107 % of control

CCCCCCCCCCCCOC(N)=O
inactive: [6] 103 % of control | [7] 101 % of control | dose: 100.0 mg/kg/injection, schedule: Q04DX003 (ip), vehicle: saline with Tween-80 103 % of control | [8] 101 % of control | dose: 200.0 mg/kg/injection, schedule: Q04DX003 (ip), vehicle: saline with Tween-80 108 % of control | dose: 400.0 mg/kg/injection, schedule: Q04DX003 (ip), vehicle: saline with Tween-80 88 % of control

CCC(=O)c1ccc(NC(=S)Nc2ccccc2)cc1
inactive: dose: 5.0 mg/kg/injection, schedule: Q01DX009 (ip), vehicle: saline with Tween-80 104 % of control | dose: 10.0 mg/kg/injection, schedule: Q01DX009 (ip), vehicle: saline with Tween-80 97 % of control | dose: 20.0 mg/kg/injection, schedule: Q01DX009 (ip), vehicle: saline with Tween-80 101 % of control and 86 % of control | dose: 40.0 mg/kg/injection, schedule: Q01DX009 (ip), vehicle: saline with Tween-80 95 % of control and 89 % of control | dose: 80.0 mg/kg/injection, schedule: Q01DX009 (ip), vehicle: saline with Tween-80 86 % of control and 88 % of control | [5] 110 % of control | [9] 100 % of control | dose: 320.0 mg/kg/injection, schedule: Q01DX009 (ip), vehicle: saline with Tween-80 87 % of control | [10] 98 % of control

CCOc1ccc(NP(=O)(Oc2c(F)c(F)c(F)c(F)c2F)N(CCCl)CCCl)cc1 (centres undefined)
inactive: dose: 62.5 mg/kg/injection, schedule: Q01DX001 (ip), vehicle: other 95 % of control | dose: 125.0 mg/kg/injection, schedule: Q01DX001 (ip), vehicle: other 90 % of control | dose: 250.0 mg/kg/injection, schedule: Q01DX001 (ip), vehicle: other 89 % of control | dose: 500.0 mg/kg/injection, schedule: Q01DX001 (ip), vehicle: other 87 % of control

C/C=C/C=N/NC(=O)c1ccccc1O
inactive: [11] 102 % of control | [12] 105 % of control | [13] 94 % of control

Nc1nc(N)c(-c2ccc(Cl)cc2)c(CNc2ccc(/C=C/C3(CCl)OCCO3)cc2)n1
inactive: [3] 92 % of control | dose: 200.0 mg/kg/injection, schedule: Q01DX001 (ip), vehicle: saline with Tween-80 100 % of control | dose: 400.0 mg/kg/injection, schedule: Q01DX001 (ip), vehicle: saline with Tween-80 96 % of control

O=S(=O)(O)c1ccc(Br)cc1
inactive: dose: 100.0 mg/kg/injection, schedule: Q01DX009 (ip), vehicle: saline 116 % of control | [5] 98 % of control | dose: 200.0 mg/kg/injection, schedule: Q01DX009 (ip), vehicle: saline 108 % of control | [9] 103 % of control | dose: 400.0 mg/kg/injection, schedule: Q01DX009 (ip), vehicle: saline 108 % of control | [10] 104 % of control

Cc1ccc(/C=N\NC(=O)C(O)C(O)C(O)C(O)CO)cc1 (centres undefined)
inactive: dose: 100.0 mg/kg/injection, schedule: Q04DX002 (ip), vehicle: saline with Tween-80 91 % of control | dose: 200.0 mg/kg/injection, schedule: Q04DX002 (ip), vehicle: saline with Tween-80 91 % of control | dose: 400.0 mg/kg/injection, schedule: Q04DX002 (ip), vehicle: saline with Tween-80 109 % of control

CCN(CC)C(=O)C(Br)C(Br)C(=O)N(CC)CC (centres undefined)
inactive: dose: 100.0 mg/kg/injection, schedule: Q04DX003 (ip), vehicle: acetone 100 % of control | dose: 200.0 mg/kg/injection, schedule: Q04DX003 (ip), vehicle: acetone 100 % of control | dose: 400.0 mg/kg/injection, schedule: Q04DX003 (ip), vehicle: acetone 92 % of control

CC(C)(C)NC(=O)NCc1ccc(Cl)c(Cl)c1
inactive: [11] 92 % of control | [12] 93 % of control | [13] 98 % of control

COc1cccc(OC)c1OC
inactive: dose: 87.5 mg/kg/injection, schedule: Q01DX009 (ip), vehicle: Klucel (hydroxypropylcellulose) (HPC) 106 % of control | dose: 175.0 mg/kg/injection, schedule: Q01DX009 (ip), vehicle: Klucel (hydroxypropylcellulose) (HPC) 100 % of control | dose: 350.0 mg/kg/injection, schedule: Q01DX009 (ip), vehicle: Klucel (hydroxypropylcellulose) (HPC) 97 % of control

O=c1[nH]cnc2c(C3OC(CO)C(O)C3O)[nH]nc12 (centres undefined)
inactive: dose: 10.0 mg/kg/injection, schedule: Q01DX015 (ip), vehicle: carboxymethylcellulose (CMC) 86 % of control | dose: 20.0 mg/kg/injection, schedule: Q01DX015 (ip), vehicle: carboxymethylcellulose (CMC) 88 % of control

C1CCC(C2=NC3CCCCC3SC2)CC1 (centres undefined)
inactive: dose: 100.0 mg/kg/injection, schedule: Q04DX002 (sc), vehicle: olive oil, sesame oil, peanut oil 103 % of control | dose: 200.0 mg/kg/injection, schedule: Q04DX002 (sc), vehicle: olive oil, sesame oil, peanut oil 107 % of control | dose: 400.0 mg/kg/injection, schedule: Q04DX002 (sc), vehicle: olive oil, sesame oil, peanut oil 96 % of control

CCOC(=O)CCC(NC(=O)C1CSC(C)(C)N1C=O)C(=O)OCC (centres undefined)
inactive: [5] 104 % of control | [9] 93 % of control | [10] 98 % of control
